For ten compounds, GI50 and TGI results are on record in PubChem BioAssay (NCI).

Test systems include HL-60(TB) leukemia; U251 CNS; HCT-116 colon; K-562 leukemia; BT-549 breast; MDA-MB-435; IGROV1 ovarian; TK-10 renal; SF-539 CNS; OVCAR-4 ovarian.
Holding throughout (test): DTP human tumour cell line panel, 48 h

SMILES strings stand for the structures. Values joined by “and” are separate entries in the source; they are usually repeats but may differ in a detail not shown here. Identical values can stand only once.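 Exposure lasted 48 hours, with cells grown in 96-well plates and compounds tested at five concentrations. Here, GI50 denotes the concentration required for 50% inhibition of growth. At the TGI there is no net growth.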

The term GI50 denotes the concentration that inhibits growth by half. By TGI is commonly meant the concentration at which net growth stops. A low value points to greater sensitivity of the cells. For `O=C(O)c1ccc(-c2ccc(C(=O)O)cc2I)c(I)c1`, the GI50 with HL-60(TB) leukemia, with U251 CNS, in the assay with HCT-116 colon, in the assay with K-562 leukemia, with BT-549 breast and in the assay on MDA-MB-435 was more than 100 µM each time. Besides, the GI50 with IGROV1 ovarian, in the assay with TK-10 renal, in the assay with SF-539 CNS and in the assay on OVCAR-4 ovarian was more than 100 µM throughout. The TGI with HL-60(TB) leukemia, in the assay on U251 CNS, in the assay with HCT-116 colon, with K-562 leukemia, in the assay with BT-549 breast and with MDA-MB-435 was more than 100 µM in each case. Also, the concentration for total growth inhibition (TGI) with IGROV1 ovarian, in the assay with TK-10 renal, with SF-539 CNS and in the assay on OVCAR-4 ovarian was more than 100 µM each time.
In the case of `O=C(NCCN1CCOCC1)Nc1ccc(-c2cc3c(Nc4ccc(Oc5cccc(C(F)(F)F)c5)c(Cl)c4)ncnc3s2)cc1`, the GI50 with HL-60(TB) leukemia was 1.26 µM; with U251 CNS it was 0.769 µM; in the assay on HCT-116 colon it was 1.49 µM; with K-562 leukemia, 0.706 µM; with BT-549 breast, 2.32 µM; in the assay with MDA-MB-435 it was 0.987 µM. Also, the GI50 in the assay on IGROV1 ovarian is 1.64 µM; with TK-10 renal, 2.78 µM; with SF-539 CNS, 0.825 µM; in the assay with OVCAR-4 ovarian, 3.26 µM. Besides, the TGI in the assay with HL-60(TB) leukemia was 3.37 µM; in the assay on U251 CNS, 2.43 µM; in the assay on HCT-116 colon, 5.05 µM; in the assay with K-562 leukemia, 3.31 µM; with BT-549 breast it was 11.1 µM; in the assay on MDA-MB-435 it was 2 µM. The concentration for total growth inhibition (TGI) worked out at 6.85 µM in the assay with IGROV1 ovarian, 9.08 µM with TK-10 renal, 2.01 µM in the assay with SF-539 CNS and 11.5 µM in the assay on OVCAR-4 ovarian.
As to `CCN(Cc1nc2cc(C(F)(F)F)ccc2nc1-c1ccccc1)c1ccc(OC)c(OC)c1`, the GI50 was 4.46 µM in the assay on HL-60(TB) leukemia; 6.49 µM in the assay on U251 CNS; 11.1 µM in the assay on HCT-116 colon; 6.72 µM in the assay on K-562 leukemia; 13.4 µM in the assay on BT-549 breast; 16.4 µM in the assay on MDA-MB-435. For the same compound, the GI50 with IGROV1 ovarian is 16.8 µM; in the assay on TK-10 renal, 28 µM; with SF-539 CNS it was 15.9 µM; in the assay with OVCAR-4 ovarian, 41.2 µM. Besides, the concentration for total growth inhibition (TGI) in the assay on HL-60(TB) leukemia came to 17.6 µM; with U251 CNS, 19.1 µM; in the assay with HCT-116 colon, 23.2 µM; in the assay with K-562 leukemia, 24.6 µM; in the assay on BT-549 breast, 31.7 µM; in the assay on MDA-MB-435, 32.4 µM. The TGI was 33.7 µM in the assay on IGROV1 ovarian, 82.3 µM with TK-10 renal, 33.1 µM in the assay with SF-539 CNS and more than 100 µM in the assay with OVCAR-4 ovarian.
Consider `CCn1c(-c2nonc2N)nc2c(C#CC(C)(C)O)nc(O[C@@H](CN)c3ccccc3)cc21`, for which the 50% growth inhibitory concentration (GI50) in the assay with HL-60(TB) leukemia was 0.0891 µM; in the assay on U251 CNS, 0.0455 µM; with HCT-116 colon, 0.121 µM; in the assay on K-562 leukemia, 0.122 µM; in the assay with BT-549 breast, 0.356 µM; with MDA-MB-435, 0.365 µM. Moreover, the concentration for 50% growth inhibition (GI50) with IGROV1 ovarian is 0.0163 µM; in the assay with TK-10 renal, 0.164 µM; in the assay on SF-539 CNS it was 0.116 µM; in the assay on OVCAR-4 ovarian, 0.447 µM. Besides, the TGI was 0.371 µM in the assay with HL-60(TB) leukemia; 1.15 µM in the assay with U251 CNS; 2.61 µM in the assay with HCT-116 colon; 4.26 µM with K-562 leukemia; 1.9 µM in the assay on BT-549 breast; 2.99 µM in the assay on MDA-MB-435. In addition, the concentration for total growth inhibition (TGI) stood at 2.86 µM in the assay on IGROV1 ovarian, 1.66 µM with TK-10 renal, 0.874 µM in the assay on SF-539 CNS and 4.63 µM with OVCAR-4 ovarian.
Regarding `CCCC[P+](c1ccccc1)(c1ccccc1)c1ccccc1`, the GI50 with HL-60(TB) leukemia was 0.955 µM; in the assay with U251 CNS, 2.34 µM; with HCT-116 colon, 2.87 µM; in the assay with K-562 leukemia it was 0.577 µM; in the assay on BT-549 breast, 3.32 µM; in the assay on MDA-MB-435, 1.63 µM. In addition, the GI50 with IGROV1 ovarian is 11.4 µM; in the assay on TK-10 renal, 8.29 µM; with SF-539 CNS it was 7.09 µM; in the assay on OVCAR-4 ovarian it was 2.43 µM. The TGI in the assay on HL-60(TB) leukemia was 6.91 µM; in the assay on U251 CNS it was more than 100 µM; in the assay with HCT-116 colon, more than 100 µM; in the assay on K-562 leukemia it was more than 100 µM; in the assay on BT-549 breast, 74.7 µM; in the assay with MDA-MB-435, 82.6 µM. In addition, the TGI in the assay with IGROV1 ovarian, in the assay with TK-10 renal, in the assay on SF-539 CNS and in the assay with OVCAR-4 ovarian was more than 100 µM in each case.
`COC(=O)[C@@H](Cc1c[nH]c2ccccc12)NC(=O)/C=C/c1ccccc1`: the GI50 in the assay on HL-60(TB) leukemia is 2.33 µM; with U251 CNS, 3.16 µM; in the assay on HCT-116 colon, 3.36 µM; in the assay with K-562 leukemia, 2.74 µM; in the assay with BT-549 breast it was 4.1 µM; in the assay on MDA-MB-435, 0.782 µM. Also, the GI50 was 7.07 µM with IGROV1 ovarian, 17.9 µM in the assay on TK-10 renal, 1.95 µM in the assay on SF-539 CNS and 5.71 µM in the assay with OVCAR-4 ovarian. Also, the TGI with HL-60(TB) leukemia was 5.71 µM; with U251 CNS, 41.6 µM; with HCT-116 colon it was more than 100 µM; with K-562 leukemia it was more than 100 µM; with BT-549 breast, 71.8 µM; in the assay on MDA-MB-435, 3.91 µM. Besides, the TGI in the assay with IGROV1 ovarian is more than 100 µM; with TK-10 renal, more than 100 µM; with SF-539 CNS, 5.29 µM; in the assay with OVCAR-4 ovarian it was more than 100 µM.
Turning to `O=C(NCCCNC(=O)OCc1ccc2c(Br)cc(Br)c(O)c2n1)OCc1ccc2c(Br)cc(Br)c(O)c2n1`, the GI50 in the assay with HL-60(TB) leukemia, in the assay on U251 CNS, with HCT-116 colon, with K-562 leukemia, in the assay on BT-549 breast and in the assay with MDA-MB-435 was more than 100 µM in each case. The GI50 in the assay on IGROV1 ovarian, with TK-10 renal, with SF-539 CNS and in the assay with OVCAR-4 ovarian was more than 100 µM each time. In addition, the total growth inhibition concentration (TGI) in the assay with HL-60(TB) leukemia, with U251 CNS, in the assay on HCT-116 colon, with K-562 leukemia, with BT-549 breast and with MDA-MB-435 was more than 100 µM throughout. In addition, the TGI with IGROV1 ovarian, in the assay with TK-10 renal, in the assay with SF-539 CNS and with OVCAR-4 ovarian was more than 100 µM in each case.
Take `CC(C)c1cc(CNc2nc(Nc3cc(C4CC4)[nH]n3)cc(N3CCN(C)CC3)n2)on1`: the concentration for 50% growth inhibition (GI50) with HL-60(TB) leukemia was 0.359 µM and 0.087 µM; with U251 CNS, 3.49 µM and 0.408 µM; in the assay on IGROV1 ovarian, 0.462 µM and 0.175 µM; in the assay on TK-10 renal, 0.53 µM and 0.277 µM; with OVCAR-4 ovarian it was 2.14 µM and 0.731 µM. For the same compound, the TGI in the assay with HL-60(TB) leukemia is > 10 µM and 1.6 µM; in the assay with U251 CNS, > 10 µM and 10.3 µM; with HCT-116 colon it was > 10 µM and 44.6 µM; in the assay with K-562 leukemia, > 10 µM and 14.5 µM; in the assay on BT-549 breast, > 10 µM and 1.4 µM; in the assay with MDA-MB-435, > 10 µM and 5.54 µM. Moreover, the TGI is 4.94 µM and 7.13 µM in the assay with IGROV1 ovarian; 4.19 µM and 5.52 µM with TK-10 renal; > 10 µM and 1.02 µM in the assay with SF-539 CNS; > 10 µM and 4.57 µM in the assay on OVCAR-4 ovarian.
Turning to `O=C(O)c1ccc(S(=O)(=O)N=Nc2c(O)[nH]c3ccccc23)cc1`, the TGI in the assay on HL-60(TB) leukemia, in the assay on U251 CNS, in the assay on HCT-116 colon, in the assay with K-562 leukemia, in the assay on BT-549 breast and in the assay on MDA-MB-435 was more than 100 µM throughout. The concentration for total growth inhibition (TGI) in the assay with IGROV1 ovarian, with TK-10 renal, with SF-539 CNS and with OVCAR-4 ovarian was more than 100 µM each time.
As for `C=CC[Se]C(=O)Cc1c(C)n(C(=O)c2ccc(Cl)cc2)c2ccc(OC)cc12`, the GI50 in the assay on HL-60(TB) leukemia was 2.26 µM; in the assay with U251 CNS, 1.1 µM; with HCT-116 colon, 1.76 µM; in the assay with K-562 leukemia, 3.22 µM; with BT-549 breast, 1.59 µM; with MDA-MB-435 it was 2.71 µM. Further, the GI50 in the assay with IGROV1 ovarian is 1.88 µM; in the assay on TK-10 renal, 1.75 µM; in the assay on SF-539 CNS, 1.66 µM; in the assay with OVCAR-4 ovarian it was 1.69 µM. In addition, the total growth inhibition concentration (TGI) was 5.56 µM in the assay with HL-60(TB) leukemia; 2.73 µM in the assay on U251 CNS; 3.57 µM in the assay with HCT-116 colon; 19.2 µM with K-562 leukemia; 3.01 µM in the assay on BT-549 breast; 8.44 µM with MDA-MB-435. In addition, the TGI in the assay with IGROV1 ovarian stood at 3.75 µM; in the assay with TK-10 renal, 3.19 µM; in the assay with SF-539 CNS it was 3.02 µM; in the assay with OVCAR-4 ovarian it was 3.07 µM.
